Data: patent US10633338B2, “Binding Function 3 (BF3) site compounds as therapeutics and methods for their use” (THE UNIVERSITY OF BRITISH COLUMBIA, priority 2014, dated 2020)
Where two headings read alike, the source gives them in different places.

What was measured:
[1] = molecular target: T1, androgen receptor (AR) (Homo sapiens, UniProt P10275, T878A); experiment: eGFP cellular AR transcription assay; format: cell-based
T1 construct: stably transfected eGFP-expressing LNCaP human prostate cancer cells (LN-ARR2PB-eGFP) containing an androgen responsive probasin-derived promoter; endogenous in cells; host or cells: LNCaP (LN-ARR2PB-eGFP)
T1 sequence (P10275 1-920 T878A): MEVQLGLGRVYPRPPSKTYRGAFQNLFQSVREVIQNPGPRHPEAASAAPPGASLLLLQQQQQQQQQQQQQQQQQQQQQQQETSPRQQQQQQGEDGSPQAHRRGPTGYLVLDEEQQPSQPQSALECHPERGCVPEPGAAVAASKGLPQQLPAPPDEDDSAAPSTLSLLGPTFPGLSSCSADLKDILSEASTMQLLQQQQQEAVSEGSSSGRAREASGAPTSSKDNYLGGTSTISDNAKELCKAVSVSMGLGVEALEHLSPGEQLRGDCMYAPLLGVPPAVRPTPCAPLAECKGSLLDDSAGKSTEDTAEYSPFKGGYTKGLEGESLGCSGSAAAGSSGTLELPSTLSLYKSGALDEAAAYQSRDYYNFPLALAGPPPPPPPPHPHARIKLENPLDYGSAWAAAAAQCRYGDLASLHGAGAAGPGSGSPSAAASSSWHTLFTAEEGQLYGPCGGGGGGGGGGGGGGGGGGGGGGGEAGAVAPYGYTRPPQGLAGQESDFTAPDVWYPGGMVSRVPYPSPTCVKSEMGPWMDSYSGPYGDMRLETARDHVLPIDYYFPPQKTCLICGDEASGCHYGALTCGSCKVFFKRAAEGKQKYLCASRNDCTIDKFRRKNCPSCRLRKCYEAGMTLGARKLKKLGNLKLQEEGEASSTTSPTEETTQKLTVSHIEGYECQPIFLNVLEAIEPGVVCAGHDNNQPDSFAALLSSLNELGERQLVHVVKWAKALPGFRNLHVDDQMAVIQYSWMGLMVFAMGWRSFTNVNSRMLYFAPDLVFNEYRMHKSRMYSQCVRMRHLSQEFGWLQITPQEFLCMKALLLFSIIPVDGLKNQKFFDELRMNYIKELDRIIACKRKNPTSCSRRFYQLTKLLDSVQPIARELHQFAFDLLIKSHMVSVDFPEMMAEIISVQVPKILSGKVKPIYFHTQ
Procedure: After 5 days, the cells were plated into a 96-well plate (35,000 cells/well) with 0.1 nM of the synthetic androgen R1881 and increasing concentrations (0-100 μM) of compound.
After 5 days, the cells were plated into a 96-well plate (35,000 cells/well) with 0.1 nM R1881 and increasing concentrations (0-100 μM) of compound.
In this assay, the expression of eGFP is under the control of an androgen responsive probasin-derived promoter and can quantify AR transcriptional activity.

[2] = tested on: PSA; experiment: Prostate Surface Antigen (PSA) assay, PSA excreted into the media; format: cell-based, human; settings: same plates as eGFP assay
Procedure: The evaluation of PSA excreted into the media was performed in parallel to the eGFP assay using the same plates (see above description). After the cells were incubated for 3 days 150 μl of the media was taken from each well, and added to 150 μl of PBS.

[3] = LN-ARR2PB-eGFP LNCaP cells, 0.1 nM R1881, 3 days, 0-100 μM compound, read-out: IC50 (eGFP)
[4] = Homo sapiens, 72 h, media after 3 days, read-out: IC50 (PSA)
[5] = media after 3 days, read-out: IC50 (PSA)
[6] = LN-ARR2PB-eGFP LNCaP cells, 0.1 nM R1881, 3 days, 0-100 μM compound
[7] = LN-ARR2PBeGFP LNCaP cells, 0.1 nM R1881, 3 days incubation, read-out: eGFP IC50
[8] = Homo sapiens, 72 h, PSA excreted into media, 3 days incubation, read-out: PSA IC50

IC50 [1, 3] | IC50 [2, 4] | IC50 [1, 7] | IC50 [2, 8] | Structure (SMILES) | also measured
3860 nM | 1430 nM |  |  | c1ccc(-c2ccc(-c3c[nH]c4cccnc34)cc2)cc1 [13 735] | 
620 nM | 680 nM |  |  | COC(=O)c1cccc2c(-c3ccc(Br)cc3)c[nH]c12 [13 736] | 
80 nM | 37 nM |  |  | Brc1ccc(-c2c[nH]c3cccnc23)cc1 [13 737] | 
83 nM | 62 nM |  |  | O=[N+]([O-])c1cccc2c(-c3ccc(Br)cc3)c[nH]c12 [13 738] | 
660 nM | 670 nM |  |  | c1ccc(-c2c[nH]c3ncccc23)cc1 [13 739] | 
120 nM | 120 nM |  |  | Fc1ccc(-c2c[nH]c3ncccc23)cc1 [13 740] | 
290 nM | 290 nM |  |  | FC(F)(F)c1ccc(-c2c[nH]c3ccccc23)nc1 [13 741] | 
380 nM | 390 nM |  |  | FC(F)(F)c1ccc(-c2c[nH]c3ccccc23)cc1 [13 743] | 
760 nM | 750 nM |  |  | Cc1cccc2c(-c3ccc4cccnc4c3)c[nH]c12 [13 744] | 
1010 nM | 950 nM |  |  | FC(F)(F)c1ccccc1-c1c[nH]c2ccccc12 [13 745] | 
2000 nM | 1490 nM |  |  | Cn1ccc2cc(-c3ccc4ccccc4c3)ccc21 [13 756] | 
300 nM | 270 nM |  |  | Cc1cccc2c(-c3ccc4ocnc4c3)c[nH]c12 [13 759] | 
100 nM |  |  |  | Cc1cccc2c(-c3nc4ccccc4s3)c[nH]c12 [13 760] | IC50 [2, 5]: 520 nM
 |  | 5200 nM | 2400 nM | O=C(c1cc2cc(F)ccc2[nH]1)N(Cc1ccco1)Cc1ccco1 [Compound 9125] | 
 |  | 3200 nM | 3500 nM | Cc1ccc(CN(C(=O)c2cc3ccccc3[nH]2)C(C)C)o1 [Compound 9128] | 
 |  | 2100 nM | 110 nM | c1ccc2[nH]c(-c3c[nH]c4ccccc34)cc2c1 [Compound 13127] | 
 |  | 1700 nM | 2460 nM | Fc1ccc(Nc2nc3ccccc3[nH]2)cc1Cl [Compound 13145] | 
 |  | 480 nM | 160 nM | c1ccc2c(c1)C[C@@H](c1c[nH]c3ccccc13)N2 [Compound 13163-A] | 
 |  | 480 nM | 240 nM | c1ccc2c(c1)C[C@H](c1c[nH]c3ccccc13)N2 [Compound 13163-B] | 
 |  | 770 nM | 670 nM | CN1c2ccccc2C[C@H]1c1c[nH]c2ccccc12 [Compound 13164-A] | 
 |  | 1300 nM | 1590 nM | CN1c2ccccc2C[C@@H]1c1c[nH]c2ccccc12 [Compound 13164-B] | 
 |  | 1600 nM | 2120 nM | Cn1cc(-c2cc3ccccc3n2C)c2ccccc21 [Compound 13166] | 
 |  | 1900 nM | 1250 nM | O=Nc1c(-c2c[nH]c3ccccc23)[nH]c2ccccc12 [Compound 13167] | 
 |  | 950 nM | 740 nM | Cc1ccccc1CSc1c(C)[nH]c2ccccc12 [Compound 13222] | 
 |  | 700 nM |  | Cc1ccc(/N=N/c2c[nH]c3ccccc23)c(C)c1 [Compound 13225] | IC50 ([2]; PSA excreted into media, 3 days incubation, read-out: PSA IC50): 900 nM
 |  | 110 nM | 76 nM | Clc1cccc(/N=N/c2c[nH]c3ccccc23)c1 [Compound 13226] | 
 |  | 2200 nM | 1010 nM | C(=C\c1c[nH]c2ccccc12)/c1ccccc1 [Compound 13235] | 
 |  | 1700 nM | 1690 nM | C[C@@H]1Cc2ccccc2N1c1nc2ccccc2o1 [Compound 13245] | 
 |  | 500 nM | 460 nM | Clc1ccccc1/N=N/c1c[nH]c2ccccc12 [Compound 13255] | 

The next lines start with the molecule.

Structure (SMILES) | IC50 [1, 3] | IC50 [2, 4] | IC50 [1, 7] | IC50 [2, 8] | also measured
Brc1cccc2c(-c3cnc4ccccc4c3)c[nH]c12 [13 653] | 1130 nM | 290 nM |  |  | 
Cc1cccc2c(-c3cnc4ccccc4c3)c[nH]c12 [13 654] | 920 nM | 160 nM |  |  | 
Cc1cccc2c(-c3cccnc3)c[nH]c12 [13 655] | 1660 nM | 610 nM |  |  | 
c1ccc2cc(-c3c[nH]c4cnccc34)ccc2c1 [13 675] | 450 nM |  |  |  | IC50 [2, 5]: 468 nM
c1ccc2cc(-c3c[nH]c4ncccc34)ccc2c1 [13 676] | 53 nM | 34 nM |  |  | 
Cc1cccc2c(-c3ccc4c(Br)cccc4n3)c[nH]c12 [13 678] |  |  |  |  | IC50 (eGFP) [1, 6]: IC50 (eGFP) = Inactive; IC50 (PSA) ([2]; media after 3 days): IC50 (PSA) = Inactive
Cc1cccc2c(-c3ccc4c(Br)ccc(Br)c4n3)c[nH]c12 [13 679] |  |  |  |  | IC50 (eGFP) [1, 6]: IC50 (eGFP) = Inactive; IC50 (PSA) ([2]; media after 3 days): IC50 (PSA) = Inactive
Brc1ccc2[nH]cc(-c3ccc4ccccc4n3)c2c1 [13 683] | 2600 nM | 1910 nM |  |  | 
c1ccc2ncc(-c3n[nH]c4ccccc34)cc2c1 [13 684] | 1400 nM | 6610 nM |  |  | 
c1ccc2cc(-c3c[nH]c4ccncc34)ccc2c1 [13 685] |  |  |  |  | IC50 (eGFP) [1, 6]: IC50 (eGFP) = Inactive; IC50 (PSA) ([2]; media after 3 days): IC50 (PSA) = Inactive
Oc1cc2ccccc2cc1-c1nc2ccccc2[nH]1 [13 687] |  |  |  |  | IC50 (eGFP) [1, 6]: IC50 (eGFP) = Inactive; IC50 (PSA) ([2]; media after 3 days): IC50 (PSA) = Inactive
c1ccc2c(Cc3nn[nH]n3)c[nH]c2c1 [13 700] |  |  |  |  | IC50 (eGFP) [1, 6]: IC50 (eGFP) = Inactive; IC50 (PSA) ([2]; media after 3 days): IC50 (PSA) = Inactive
c1ccc2c(-c3nn[nH]n3)c[nH]c2c1 [13 701] |  |  |  |  | IC50 (eGFP) [1, 6]: IC50 (eGFP) = Inactive; IC50 (PSA) ([2]; media after 3 days): IC50 (PSA) = Inactive
O=[N+]([O-])c1cccc2c(-c3ccc4ccccc4c3)c[nH]c12 [13 702] | 200 nM | 140 nM |  |  | 
c1ccc2cc(-c3c[nH]c4cccnc34)ccc2c1 [13 703] | 100 nM | 97 nM |  |  | 
c1ccc(-c2ccc(-c3c[nH]c4ncccc34)cc2)cc1 [13 715] | 4080 nM | 350 nM |  |  | 
Brc1ccc(-c2c[nH]c3ncccc23)cc1 [13 716] | 67 nM | 58 nM |  |  | 
Cc1cccc2c(-c3ccc(-c4ccccc4)cc3)c[nH]c12 [13 733] | 3810 nM | 919 nM |  |  | 
c1ccc(-c2cccc(-c3c[nH]c4ncccc34)c2)cc1 [13 734] | 11000 nM | 4130 nM |  |  | 
Cc1cccc2c(-c3ccc4ncsc4c3)c[nH]c12 [13 757] |  |  |  |  | IC50 (eGFP) [1, 6]: IC50 (eGFP) = Inactive; IC50 (PSA) ([2]; media after 3 days): IC50 (PSA) = Inactive
Cc1cccc2c(-c3ccc4scnc4c3)c[nH]c12 [13 758] |  |  |  |  | IC50 (eGFP) [1, 6]: IC50 (eGFP) = Inactive; IC50 (PSA) ([2]; media after 3 days): IC50 (PSA) = Inactive
